Details: Capillary rise

COC(C)(C)C [2-methoxy-2-methylpropane]
Details | surface tension liquid-gas [mN/m]
243.08 K | 24.08
248.01 K | 23.43
253.11 K | 22.84
258.13 K | 22.32
263.1 K | 21.65
268.13 K | 20.97
273.16 K | 20.52
278.11 K | 19.99
283.12 K | 19.35
288.13 K | 18.96
293.07 K | 18.53
298.08 K | 17.75
303.11 K | 17.23
308.15 K | 16.71
313.16 K | 16.25
318.11 K | 15.61
323.16 K | 15.09
328.14 K | 14.52
333.15 K | 14.02
338.16 K | 13.56
343.13 K | 13.06
348.13 K | 12.5
353.13 K | 11.94
358.15 K | 11.55
363.13 K | 10.92
368.13 K | 10.53
373.12 K | 9.946
378.12 K | 9.534
383.12 K | 8.956
388.14 K | 8.518
393.13 K | 8.006

COCOC [dimethoxymethane]
Details | surface tension liquid-gas [mN/m]
238.07 K | 28.12
243.12 K | 27.42
248.13 K | 26.76
253.12 K | 26.21
258.12 K | 25.63
263.08 K | 24.83
268.09 K | 24.23
273.09 K | 23.63
278.08 K | 23.11
283.07 K | 22.39
288.08 K | 21.75
293.05 K | 21.02
298.04 K | 20.36
303.16 K | 19.7
308.15 K | 18.99
313.16 K | 18.4
318.16 K | 17.67
323.15 K | 17.16
328.13 K | 16.56
333.16 K | 15.88
338.16 K | 15.32
343.15 K | 14.65
348.14 K | 14.02
353.15 K | 13.34
358.15 K | 12.83
363.15 K | 12.27
368.15 K | 11.58
373.15 K | 11.01
378.15 K | 10.36
383.13 K | 9.778
388.14 K | 9.175

Source: the NIST ThermoML archive (doi:10.1021/je060097q)
